The NIST ThermoML archive (doi:10.1016/j.fluid.2016.01.013)
± gives the expanded uncertainty stated by the source.

Assay: xn = mol fraction of the nth substance listed
Details: for kinematic viscosity: Liquid, Surface laser light scattering (SLLS)

C=C(F)C(F)(F)F [2,3,3,3-tetrafluoro-1-propene] + FCC(F)(F)F
Details	kinematic viscosity [m2/s]	surface tension liquid-gas [mN/m]
293.15 K, x2 = 0.807	1.62e-07 ± 1e-08	8.25 ± 0.25
293.2 K, x2 = 0.6018	1.61e-07 ± 1e-08	7.8 ± 0.23
293.22 K, x2 = 0.3196	1.49e-07 ± 1e-08	7.38 ± 0.22
303.13 K, x2 = 0.6018	1.43e-07 ± 9.9e-09	6.59 ± 0.2
303.15 K, x2 = 0.807	1.47e-07 ± 1e-08	6.99 ± 0.21
303.21 K, x2 = 0.3196	1.35e-07 ± 9.7e-09	6.14 ± 0.18
313.12 K, x2 = 0.3196	1.25e-07 ± 9.4e-09	4.93 ± 0.15
313.15 K, x2 = 0.6018	1.29e-07 ± 9.5e-09	5.41 ± 0.16
323.1 K, x2 = 0.3196	1.15e-07 ± 9.1e-09	3.95 ± 0.12
323.15 K, x2 = 0.807	1.26e-07 ± 9.4e-09	4.55 ± 0.14
323.16 K, x2 = 0.6018	1.22e-07 ± 9.3e-09	4.24 ± 0.13
333.12 K, x2 = 0.6018	1.12e-07 ± 9.1e-09	3.15 ± 0.09
333.15 K, x2 = 0.807	1.13e-07 ± 9.1e-09	3.41 ± 0.1
333.16 K, x2 = 0.3196	1.07e-07 ± 8.9e-09	2.87 ± 0.09
343.14 K, x2 = 0.807	1.04e-07 ± 8.8e-09	2.39 ± 0.07
343.16 K, x2 = 0.6018	1e-07 ± 8.7e-09	2.11 ± 0.06
343.19 K, x2 = 0.3196	9.77e-08 ± 8.7e-09	1.88 ± 0.06
353.1 K, x2 = 0.807	9.22e-08 ± 8.6e-09	1.31 ± 0.04
353.16 K, x2 = 0.3196	8.7e-08 ± 8.4e-09	1 ± 0.03
353.19 K, x2 = 0.6018	8.9e-08 ± 8.5e-09	1.17 ± 0.04
358.15 K, x2 = 0.3196	8.36e-08 ± 8.4e-09	0.6 ± 0.02
363.16 K, x2 = 0.807	8.21e-08 ± 8.4e-09	0.53 ± 0.02
363.19 K, x2 = 0.6018	7.95e-08 ± 8.4e-09	0.37 ± 0.01

F/C=C/C(F)(F)F [trans-1,3,3,3-tetrafluoropropene] + FCC(F)(F)F
x2 = 0.4446
Details	kinematic viscosity [m2/s]	surface tension liquid-gas [mN/m]
293.1 K	1.78e-07 ± 1.1e-08	8.89 ± 0.13
303.16 K	1.62e-07 ± 1e-08	7.58 ± 0.11
313.12 K	1.45e-07 ± 1e-08	6.34 ± 0.1
323.11 K	1.3e-07 ± 9.5e-09	5.16 ± 0.08
333.14 K	1.21e-07 ± 9.3e-09	3.98 ± 0.06
343.14 K	1.12e-07 ± 9.1e-09	2.92 ± 0.04
353.1 K	1.02e-07 ± 8.8e-09	1.92 ± 0.03
363.1 K	9e-08 ± 8.5e-09	1.01 ± 0.02
369.15 K	8.63e-08 ± 8.4e-09	0.53 ± 0.01
